Measured values as given in the NIST ThermoML archive (doi:10.1016/j.fluid.2017.04.001).
± gives the expanded uncertainty stated by the source.

Assay: wn = mass fraction of the nth substance listed
Conditions: 308.2 K, 101 kPa, Liquid, Cone and plate viscometry

viscosity (w1 = 0.05) | viscosity (w1 = 0.1) | viscosity (w1 = 0.2) | viscosity (w1 = 0.3) | SMILES
0.85 ± 0.02 mPa·s | 0.96 ± 0.03 mPa·s | 1.24 ± 0.04 mPa·s | 1.7 ± 0.07 mPa·s | C[N+](C)(C)CCO.NCC(=O)[O-] [2-hydroxy-N,N,N-trimethylethanaminium glycinate] + O
0.89 ± 0.02 mPa·s | 1.06 ± 0.03 mPa·s | 1.49 ± 0.06 mPa·s | 2.2 ± 0.11 mPa·s | C[N+](C)(C)CCO.O=C([O-])[C@@H]1CCCN1 [2-hydroxy-N,N,N-trimethylethanaminium L-prolinate] + O
0.87 ± 0.02 mPa·s | 0.98 ± 0.03 mPa·s | 1.32 ± 0.05 mPa·s | 1.92 ± 0.09 mPa·s | C[C@H](N)C(=O)[O-].C[N+](C)(C)CCO [2-hydroxy-N,N,N-trimethylethanaminium L-alaninate] + O
